Details: Liquid; for speed of sound: Pulse-echo method; for mass density: Vibrating tube method

CCCCCCCCCCCCCCCCCc1ccccc1 [heptadecane, 1-phenyl-]
Details | mass density, 303.15 K [kg/m3] | mass density, 313.15 K [kg/m3] | mass density, 323.15 K [kg/m3] | mass density, 333.15 K [kg/m3] | mass density, 343.15 K [kg/m3] | speed of sound, 303.15 K [m/s] | speed of sound, 313.15 K [m/s] | speed of sound, 323.15 K [m/s] | speed of sound, 333.15 K [m/s] | speed of sound, 343.15 K [m/s]
100 kPa | 847.62 | 840.87 | 834.27 | 827.59 | 820.95 | 1422.6 | 1387.1 | 1352.6 | 1319.9 | 1287
5000 kPa | 850.37 | 843.75 | 837.23 | 830.84 | 824.32 | – | – | – | – | –
10000 kPa | 853.14 | 846.65 | 840.29 | 833.94 | 827.71 | 1467.5 | 1433.6 | 1402.3 | 1370.2 | 1338.7
15000 kPa | 855.85 | 849.47 | 843.15 | 837.13 | – | – | – | – | – | –
20000 kPa | 858.47 | 852.17 | 845.93 | 839.97 | – | 1510.9 | 1479.2 | 1447.9 | 1417.3 | –
25000 kPa | 861 | 854.73 | 848.7 | 842.84 | – | – | – | – | – | –
30000 kPa | 863.37 | 857.38 | 851.34 | 845.52 | – | 1552 | 1520.4 | 1490.8 | 1461.4 | –
35000 kPa | 865.81 | 859.9 | 853.89 | 848.14 | – | – | – | – | – | –
40000 kPa | 868.19 | 862.24 | 856.43 | 850.62 | – | 1590.5 | 1559.7 | 1531.1 | 1502.9 | –
45000 kPa | 870.43 | 864.56 | 858.84 | 853.3 | – | – | – | – | – | –
50000 kPa | 872.65 | 866.8 | 861.35 | 855.69 | – | 1627.2 | 1597.9 | 1569.2 | 1542.1 | –
55000 kPa | 874.7 | 869.08 | 863.55 | 858 | – | – | – | – | – | –
60000 kPa | 876.93 | 870.6 | 865.8 | 860.35 | – | 1661.9 | 1633.6 | 1605.8 | 1579.2 | –
70000 kPa | – | – | – | – | – | 1695.6 | 1667.3 | 1640.7 | 1614.6 | –
80000 kPa | – | – | – | – | – | – | 1700 | 1673.9 | 1648.7 | –
90000 kPa | – | – | – | – | – | – | 1731.8 | 1705.8 | 1681.3 | –
100000 kPa | – | – | – | – | – | – | 1762 | 1736.6 | 1712.2 | –
110000 kPa | – | – | – | – | – | – | 1790.2 | 1766.3 | 1742.3 | –
120000 kPa | – | – | – | – | – | – | 1818.7 | 1794.9 | 1771.7 | –
130000 kPa | – | – | – | – | – | – | 1847.1 | 1822.8 | 1799.8 | –
140000 kPa | – | – | – | – | – | – | – | 1849.3 | 1826.9 | –
150000 kPa | – | – | – | – | – | – | – | 1875.5 | 1853.6 | –

Source: the NIST ThermoML archive (doi:10.1021/je049973v)
